In brackets after ≈: the same amount, converted by molar mass. Where two headings read alike, the source gives them in different places.
Columns and labels:
[1] = Chemical stability: obeticholic acid dimer production by HPLC (Test Example 3); assay type: physicochemical
Protocol: The following assessments were carried out to see whether, in cases where the amorphous form of obeticholic acid was used, there were any changes in chemical stability even after wet granulation. Specifically, measurements were taken of the amounts in which obeticholic acid dimers were produced (referred to in Patent Document 2 as “Impurity 6,” “3α (3α, 7α-dihydroxy-6α-ethyl-5β-cholan-24-oyloxy)-7α-hydroxy-6α-ethyl-5β-cholan-24-oic acid,” and “6ECDCA dimer”), which were confirmed to have a high propensity to increase in the preparation process and stability tests among known related substances of obeticholic acid disclosed in Patent Document 2, for example.
Test tubes containing the obeticholic acid prepared in Example 19 and the obeticholic acid 20 mg FC tablets of Example 4 were stored under the following conditions. The amounts in which obeticholic acid dimer was produced before (initial) and after storage were measured in accordance with Test Example 3. […]
4 weeks at 60° C. (closed)
Acetonitrile/water (9/1) was added in an amount of exactly 10 mL to test tubes that had been retrieved from storage, and the contents were ultrasonically treated to extract the obeticholic acid. Following centrifugation (10 min at 3000 rpm), the supernatant was made into samples for HPLC assay (500 μg/mL obeticholic acid).
One tablet containing 20 mg obeticholic acid (per tablet) that had been retrieved from storage was introduced into a 40 mL graduated measuring flask. Acetonitrile/water (9/1) was added to the graduated measuring flask, the contents were ultrasonically treated (10 min), and it was confirmed that the tablet had disintegrated. The contents were thoroughly shaken (60 min at 300 rpm) using a shaker, and were again ultrasonically treated to extract the obeticholic acid. Acetonitrile/water (9/1) were added to a constant volume, followed by centrifugation (10 min at 3000 rpm), and the supernatant was made into samples for HPLC assay (500 μg/mL).
50 mg of obeticholic acid was weighed out into a 100 mL graduated measuring flask and dissolved using acetonitrile/water (9/1) (500 μg/mL). The resulting solution was diluted with acetonitrile/water (9/1) to prepare 15.0 μg/mL (3.0%), 5.0 μg/mL (1.0%), and 0.25 μg/mL (0.05%) standard solutions.
The above three standard solutions were used to produce a calibration curve, and the obeticholic acid dimer contained in the sample solutions was quantified. The conditions of analysis are shown below.
Detector: Charged particle detector
Column: by Sigma-Aldrich, SUPELCO Discovery C8 (particle size: 5 μm; internal
Mobile phase: Acetonitrile/methanol/acetic acid aqueous solution (pH 3.0) mixture (8/1/1)

[2] = Obeticholic acid solubility in various test solutions; assay type: physicochemical; conditions: read-out: Dissolved concentration

**Q.** Which “Amount of obeticholic acid dimer production” value (shortened to “Amount”) ([1]; 50° C., 85% RH open 4 W) does the source give for `CC[C@H]1[C@@H](O)[C@@H]2[C@H](CC[C@]3(C)[C@@H]([C@H](C)CCC(=O)O)CC[C@@H]23)[C@@]2(C)CC[C@@H](O)C[C@@H]12` [Obeticholic acid, 6α-ethyl-3α, 7 α-dihydroxy-5β-cholan-24-oic acid] here?
**A.** 0.83%

**Q.** And the “Increase in obeticholic acid dimer from initial product” value ([1]; 50° C., 85% RH open 4 W)?
**A.** 0.79%

**Q.** And the “Amount” value ([1]; 60° C. closed 4 W)?
**A.** 0.81%

**Q.** And the “Increase in obeticholic acid dimer from initial product” value ([1]; 60° C. closed 4 W)?
**A.** 0.77%

**Q.** What about the “Amount” value ([1]; Initial) of the same compound?
**A.** 0.04%

**Q.** What about the solubility ([2]; JP1, pH 1.2, simulated gastric fluid) of the same compound?
**A.** 4.07 µg/mL (≈ 9.68 µM)

**Q.** And the solubility ([2]; JP2, pH 6.8, aqueous buffer)?
**A.** 306 µg/mL (≈ 729 µM)

**Q.** What about the solubility ([2]; aqueous buffer, pH 3.0 McIlvaine buffer) of the same compound?
**A.** 4.43 µg/mL (≈ 10.5 µM)

**Q.** What about the solubility ([2]; aqueous buffer, pH 4.0 McIlvaine buffer) of the same compound?
**A.** 4.66 µg/mL (≈ 11.1 µM)

**Q.** And the solubility ([2]; aqueous buffer, pH 5.0 McIlvaine buffer)?
**A.** 11.4 µg/mL (≈ 27.1 µM)

**Q.** What about the solubility ([2]; aqueous buffer, pH 6.0 McIlvaine buffer) of the same compound?
**A.** 60.6 µg/mL (≈ 144 µM)

**Q.** What about the solubility ([2]; water) of the same compound?
**A.** 21.4 µg/mL (≈ 51 µM)
